Source: patent publication US20240180888A1, “C5AR1 INHIBITORS FOR TREATING […] REACTIONS TO TAXANES” (Dompe' Farmaceutici SPA, priority 2021, published 2024)
Where two headings read alike, the source gives them in different places.

T1: complement component 5a receptor 1 (C5aR1) (Homo sapiens, UniProt P21730)
T1 construct: purchased OriGene TP303784
T1 sequence (P21730 1-350): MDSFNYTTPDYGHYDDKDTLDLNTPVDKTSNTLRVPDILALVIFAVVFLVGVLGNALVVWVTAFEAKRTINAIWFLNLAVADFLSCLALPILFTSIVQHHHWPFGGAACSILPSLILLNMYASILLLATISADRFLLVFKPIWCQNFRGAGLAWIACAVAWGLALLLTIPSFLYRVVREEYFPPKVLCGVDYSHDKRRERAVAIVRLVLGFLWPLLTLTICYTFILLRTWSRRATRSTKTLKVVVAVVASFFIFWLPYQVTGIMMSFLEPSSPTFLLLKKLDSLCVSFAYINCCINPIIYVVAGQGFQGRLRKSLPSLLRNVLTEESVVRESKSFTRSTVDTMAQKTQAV

T2: complement component 5a (Homo sapiens, UniProt P01031)
T2 sequence (P01031 678-751 limits assumed): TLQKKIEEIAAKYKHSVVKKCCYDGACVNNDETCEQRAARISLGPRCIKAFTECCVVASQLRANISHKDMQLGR

B1: C5a: anaphylatoxin, pro-inflammatory polypeptide, the natural ligand of the receptor C5aR1 (protein, UniProt P01031 678-751, looked up)
C5a anaphylatoxin: TLQKKIEEIAAKYKHSVVKKCCYDGACVNNDETCEQRAARISLGPRCIKAFTECCVVASQLRANISHKDMQLGR
modifications: C5a anaphylatoxin
notes: anaphylatoxin, pro-inflammatory polypeptide, the natural ligand of the receptor C5aR1

Key:
[1] = target: T1, complement component 5a receptor 1 (C5aR1); experiment: BIAcore SPR binding to C5aR1 immobilised on sensorchip CM5 via c-Myc-tag
From the text: (§1) BIAcore technology was used to analyze the interaction between Paclitaxel and complement component 5a receptor 1 (C5aR1) (Example 1), complement component 5a receptor 2 (C5AR2) (Example 2) or complement component 5a (Example 3).
(§2) The BIAcore systems exploit the phenomenon of Surface Plasmon Resonance (SPR) to monitor interactions between molecules in real time. Briefly, SPR phenomenon occurs in thin conducting films at an interface between media of different refractive index. In BIAcore systems, the media are the glass of the sensorchip and the sample solution, and the conducting film is a thin layer of gold on the sensorchip surface. BIAcore monitors the interaction between two molecules, one attached to the sensor surface, called ligand, and the other one free in solution, and called analyte.
An anti-c-Myc antibody (9E10, sc-40, Santa Cruz Technology) was immobilized on a sensorchip CM5 (#29149604, Cytiva). In details, the antibody was diluted at a concentration of 50 μg/ml in 10 mM acetate buffer at pH 4.5, and injected over the surface of the sensorchip. In details, the dextran matrix on the sensorchip surface was first activated with a mixture of […] (EDC) and N-hydroxysuccinimide (NHS) to give reactive succinimide esters. Anti-Myc antibodies were then passed over the surface and the esters reacted spontaneously with uncharged amino groups to covalently link the ligand to the dextran. Then, the surface was deactivated by ethanolamine-HCl.
Once the antibody was immobilized, the receptor was captured on the surface of the sensorchip. This procedure allowed the immobilization of the ligand of interest in an oriented way. In particular, C5AR1-cMyc (TP303784, OriGene) at a concentration of 20 μg/ml in Running Buffer (50 mM HEPES buffer, pH 7.0 containing 0.01% CHS, 0.1% CHAPS, and 0.33 mM of lipids) was injected onto the sensorchip prepared above with a flow rate of 5 μI/min.
In details, 5 μM C5a (A144, Complement Technologies) in Running Buffer was injected on C5aR1 surface of sensorchip prepared in Example 1a).
To first evaluate a direct binding of Paclitaxel and C5aR1, the compound was injected on the C5aR1 surface of the sensorchip prepared in Example 1a) at a concentration of 300 μM in Running Buffer.
Running Buffer at different concentrations (from 4.06 to 37.5 μM), injected on the sensorchip for 4 minutes and allowed to dissociate for 5 minutes, flowing Running Buffer without Paclitaxel. In this way, the kinetic constant was evaluated as a function of time.
Also, the affinity value at equilibrium of Paclitaxel/Myc-05aR1 interaction was determined by measuring the steady-state binding levels, through a Scatchard analysis of the RU values at equilibrium.

complement component 5a = target: T2, complement component 5a; experiment: BIAcore SPR binding to C5a immobilised on sensorchip CM5; conditions: 300 microM in Running Buffer
From the text: as §1, §2
C5a was immobilized on a sensorchip (#29149604, Cytiva). In details, 20 microg/ml of recombinant protein C5a was diluted in 10 mM acetate buffer at pH 4.5 and injected over the surface of the sensorchip. Activation and deactivation of sensorchip were performed as described in Example 1a).
Paclitaxel was injected on the C5A surface of the sensorchip prepared in Example 2a) at a concentration of 300 microM in Running Buffer.RU can be detected by BIAcore.

Molecule	Paclitaxel bound to immobilised C5aR1, resonance units ([1]; 300 μM in Running Buffer)	Kd ([1]; 4.06 to 37.5 μM, 4 minutes injection, 5 minutes dissociation, read-out: Kd value (kinetic evaluation))	Kd ([1]; steady-state RU as a function of analyte concentration, read-out: affinity constant at equilibrium (steady-state binding levels, Scatchard analysis))	binding to immobilised C5a (complement component 5a)	binding to immobilised C5aR1 ([1]; 5 μM in Running Buffer)
CC(=O)O[C@H]1C(=O)[C@@]2(C)[C@H]([C@H](OC(=O)c3ccccc3)[C@]3(O)C[C@H](OC(=O)[C@H](O)[C@@H](NC(=O)c4ccccc4)c4ccccc4)C(C)=C1C3(C)C)[C@]1(OC(C)=O)CO[C@@H]1C[C@@H]2O [Paclitaxel]	300 RU	670 nM	525 nM	not able to bind	–
B1	–	–	–	–	can bind
